Data taken from US20230173064A1, “DETOXIFIED LIPOPOLYSACCHARIDES (LPS), NATURALLY NON-TOXIC LPS, AND USES THEREOF” (priority 2020, published 2023).
Read-outs that look alike come from different tables or passages of the source.

Key:
human PBMC (CryoBlood) = conditions: literature / vendor values; cited from earlier work
rabbits [1] = test: Rabbit Pyrogen Test (RPT), Ph. Eur. 5.1.10; type: in vivo; conditions: intravenous, sum of temperature rises of 3 rabbits not above 1.15° C.
Description: Standardized Rabbit Pyrogen Test (RPT) were conducted according to European Pharmacopeia (Ph. Eur. 5.1.10). Product tested includes the naturally-occurring LPS B2 0.0 and LPS W1 0.0 and modified LPS B2 0.1, LPS B2 1.1 and LPS B2 1.2, as well as a non-GMP equivalent of the GLA from Merck (Avanti Polar Lipids).
Briefly, groups of three rabbits, weighing 2.5 to 3 kg received one intravenous injection of the tested product in 1 mL/kg of body weight.
For each candidate, several dose ranges were tested from 0.1 to 1000 ng/kg. For each animal, the baseline rectal temperature was recorded. After 30 minutes, the rabbits were inoculated in the ear vein. Temperatures were recorded every 6.5 minutes for 3 hours. The rising temperature of the rabbit body temperature is that the highest body temperature measure within the 3 hours, minus the normal body temperature.
Several doses of each candidates were tested to define their MNPD corresponding to the highest dose of a given product that can be administered in rabbits without inducing febrile reaction.
The pyrogenic activity of modified LPS B2 1.2 and LPS B2 1.3 was evaluated in vivo using the rabbit pyrogen test (RPT), as described in section 5.1.10 of the European Pharmacopeia. Both LPS were administered at the same dose of 450 ng/kg. Two experiments were performed for each modified LPS, with 3 rabbits/experiment (A1, A2 and A3).

CB17-SCID mice = test: Tolerance of intravenous injection in tumor-bearing CB17-SCID mice; type: in vivo, mouse; conditions: 0.5 mg/kg intravenously
Description: (§1) Mice were treated once a week for 3 weeks (at days 20, 27 and 34) with LPS B2 0.0, LPS B2 0.1, LPS B2 1.1 or LPS W1 0.0, used alone or in combination with rituximab (Genentech), an anti-human CD20 mAb.
(§2) Groups of mice treated with GLA (Merck/Immune Design Corp.) administered either intravenously or intraperitoneally at 0.5 mg/kg, alone or in combination with rituximab, were included for comparison.
(§3) LPS B2 0.0, LPS B2 0.1, LPS B2 1.1 or LPS W1 0.0 were administered intravenously at a dose of 0.5 mg/kg. Rituximab was administered intraperitoneally at a dose of 30 mg/kg.

[2] = Dynamic Light Scattering (DLS) aggregate size analysis in water and PBS suspensions; type: physicochemical; conditions: for average particle size: 0.2 mg/mL, DLS at 25° C., average of triplicate
Description: Determination of aggregates sizes of LPS B2 0.0, LPS B2 0.1, LPS B2 1.1 and of synthetic GLA (PHAD®, from Avanti® Polar Lipids, Inc.) in aqueous and PBS suspensions was determined by Dynamic Light Scattering (DLS) using the Malvern Instruments Zetasizer Nano S90 with a scattering angle Θ=90°, incident laser wavelength λ=633 nm and temperature at 25° C.
Samples for measurements were prepared as follows: 200 μg of dry samples in 4 mL glass vials were suspended in 1 mL of water or PBS. LONZA LAL Reagent water and Gibco PBS pH 7.4 (without CaCl2 or MgCl2) were used. The solvents were added progressively (250 μL plus 250 μL plus 500 μL). Three homogenization cycles were applied after each addition of a solvent, consisting in a 10-second sonication in a Fisher Scientific FB 15050 ultrasonic bath and 5 seconds vigorous vortex agitation.
800 μL of each suspension were transferred to a disposable Eppendorf polystyrene semi-micro cuvette and DLS measurements were performed three times.
LPS SM1 V1 was diluted in PBS pH 7.5 at 50 nmol/mL, and filtered through a 200-nm filter to remove large debris and aggregates. No nucleic acid contaminants and 2-4 μg/mL of protein contaminants were measured in the sample.

[3] = system: human B-lymphoma tumor model (RL cells) in CB17-SCID mice; test: Tumor rejection assay, therapeutic setting, human B-lymphoma RL cells engrafted in CB17-SCID mice; type: in vivo, mouse; conditions: for growth of established RL tumor cells: once a week for 3 weeks, LPS 0.5 mg/kg i.v., GLA 0.5 mg/kg, rituximab 30 mg/kg i.p., vs non-treated mice
Description: The therapeutic efficacy of native (LPS B2 0.0 and LPS W1 0.0) and modified (LPS B2 0.1 and LPS B2 1.1) LPS, alone or in combination with rituximab, was analyzed in vivo against a human B-lymphoma tumor model (RL cells) using tumor rejection assays with a therapeutic setting in mice.
Cohort of CB17-SCID mice were engrafted subcutaneously in the abdominal right flank with 5×10^6 human B-lymphoma cells (RL cells). When the tumor volume had reached 100 mm^3 (at day 20), mice were randomized (n=6 mice/group), and the first treatment was administered.
as §1, §2, §3
Tumor-bearing mice injected with PBS (control) or rituximab alone were used as controls.
The tumor volume was measured twice a week (length x width) with a caliper. The tumor volume was determined using the formula: […]

rabbits [4] = conditions: literature values; cited from earlier work
[5] = system: Osa tumor cells in Sprague-Dawley (SD) rats; test: Tumor rejection assay, orthotopic rat model of osteosarcoma (Osa); type: in vivo
Description: The therapeutic efficacy of the modified LPS B2 1.3 was analyzed in vivo against an orthotopic rat model of osteosarcoma (Osa) using tumor rejection assays with a therapeutic setting.
Sprague-Dawley (SD) rats were engrafted with Osa tumor cells in a paratibial position (left posterior tibia) after a periosteal abrasion. When tumors reached an average tumor volume of 150 mm^3, rats (n=3 to 8/group) were randomized into LPS B2 1.3, Doxorubicin (Doxo), or PBS (Control) groups.
LPS B2 1.3 was administered intravenously into the tail vein, twice a week for 2 weeks at 0.25 mg/kg.
Doxorubicin was administered intraperitoneally twice a week for 2 weeks at 1 mg/kg.
Tumor growth and survival were monitored twice a week. Tumor volumes V were assessed according to the following formula: […]
with L the longest and C the shortest tumor diameter.

CCCCCCCCCCCCCC(=O)O[C@H](CCCCCCCCCCC)CC(=O)O[C@@H]1[C@@H](NC(=O)C[C@H](CCCCCCCCCCC)OC(=O)CCCCCCCCCCCCC)[C@H](OC[C@H]2O[C@H](O)[C@H](NC(=O)C[C@H](O)CCCCCCCCCCC)[C@@H](OC(=O)C[C@H](O)CCCCCCCCCCC)[C@@H]2O)O[C@H](CO)[C@H]1OP(=O)(O)O [GLA, glucopyranosyl lipid A]
MAT (pyrogenicity as described in the literature) (human PBMC (CryoBlood)): 15700^2 EEU/μg | MNPD (maximum non-pyrogenic dose) (rabbits [1]): 0.034 µg/kg | altered aspect and behavior (toxicity) after intravenous administration (CB17-SCID mice): had to be euthanized | average particle size ([2]; in PBS): about 529 nm | DLS profile ([2]; in water): monodisperse | size of nano-particles / aggregates ([2]; in water or PBS): > 500 nm | solubility / dispersibility ([2]; in water or PBS, without dispersing reagents or special treatment): precipitates | appearance of the final 0.2 mg/mL suspensions ([2]; in water or in PBS): slightly opaque but homogeneous | average particle size ([2]; in water): about 544 nm | complete tumor regression ([3]; GLA 0.5 mg/kg injected intraperitoneally in combination with rituximab): 50% | growth of established RL tumor cells ([3]; single agent): did not show any impairment

CCCCCCCCCCC[C@H](CC(=O)N[C@H]1[C@H](OC[C@H](NC(=O)C[C@@H](CCCCCCCCCCC)OCCCCCCCCCC)C(=O)O)O[C@H](CO)[C@@H](OP(=O)(O)O)[C@@H]1OC(=O)C[C@@H](CCCCCCCCCCC)OCCCCCCCCCC)OCCCCCCCCCC [GSK1795-091]
MNPD (maximum non-pyrogenic dose) (rabbits [4]): 0.0025 µg/kg

COc1cccc2c1C(=O)c1c(O)c3c(c(O)c1C2=O)C[C@@](O)(C(=O)CO)C[C@@H]3O[C@H]1C[C@H](N)[C@H](O)[C@H](C)O1 [doxorubicin]
growth of established Osa tumor cells ([5]; LPS B2 1.3 0.25 mg/kg i.v., doxorubicin 1 mg/kg i.p., twice a week for 2 weeks, vs PBS (and doxorubicin)): No significant difference in tumor growth | animals alive (survival) ([5]; day 31): 40% | complete tumor regressions (complete responses) ([5]; day 31): no tumor regressions

rituximab: an anti-CD20 monoclonal antibody (Genentech)
complete tumor regression ([3]; single agent, D54 post-tumor challenge): 17% | growth of established RL tumor cells ([3]; single agent): significantly impair the growth
